Measured values published in patent US11419913B2, “Pharmaceutical compositions for inhibiting inflammatory cytokines” (S.I.S. SHULOV INNOVATIVE SCIENCE LTD., priority 2018, dated 2022).
“Also recorded” adds a separate entry of the source. Marks after values point to notes of the source that are not given here. Where a SMILES comes first, the peptide text is derived from it. [ ]: non-standard residue; d: D form. The star is where a group is joined. pGlu = O=C1CC[C@@H](C(=O)O)N1; Octanoyl = CCCCCCCC(=O)*

What was measured:
[1] = Oxazolone-induced atopic dermatitis mouse model, tolerability and bodyweights; conditions: for tolerability: 50 mg/kg topical to atopic dermatitis induced mice; for Bodyweights in comparison to the excipient: day 8 to day 28
Description: Method: Animals were sensitized by topical administration of oxazolone 2% in ethanol on the back at Day 0 after shaving and depilation of the animals (sensitization phase). Then a challenge was performed one week later by topical administration of oxazolone 1% in ethanol on the back and on right ear every 2 days at 10 occasions namely for total 3 weeks. The tested compounds were applied during the challenge phase every 2 days via the topical route as ready to use cream formulations. The surface of application was the same as for challenge (back+ear). 100 μL were deposited on the back and the back was smoothly massaged. Then, remaining formulation on finger glove was deposited on the internal face of the ear. Every other day, back skin and ears thickness were measured using caliper; and the following clinical scores were recorded from back skin: erythema and scaling. Animals were also weighed every other day (approximate bodyweights of a mouse at startup is about 20 g).
The formulations used for topical administration of the tested compound were: ZEP3 1% cream having pH 7.1 and comprising: Propylene glycol, Polysorbate 80, Edetate Disodium, Silicon dioxide (syloid), Methylparaben, White petrolatum, Isopropyl Myristate, Cetyl Alcohol and Glyceryl Monostearate. ZEP3Na 1% cream having pH 8.0 and comprising: Propylene glycol, Polysorbate 80, Edetate Disodium, Silicon dioxide (syloid), Methylparaben, White petrolatum, Isopropyl Myristate, Cetyl Alcohol and Glyceryl Monostearate. ZEP4 1% cream having pH 4.5 and comprising: Propylene glycol, Glycerin, Polysorbate 80, EDTA Disodium, Xanthan Gum, Silicon dioxide (syloid), Methylparaben, White petrolatum, Isopropyl Myristate, Cetyl Alcohol, Stearyl Alcohol, and Glyceryl Monostearate (kolliwax).

TNF alpha [2] = experiment: Expression of TNF alpha by B6 macrophage cells treated with LPS and palmitic acid; format: cell-based, mouse
Description: Macrophages originating from C57BL/6 mice were cultured at a density of 200,000 cells/mL in a 24-well plate (500 μl wells) and incubated at 37° C. and 5% CO2 overnight. Following incubation, culture media in certain experimental groups were replaced with fresh media containing 100 ng/mL LPS, followed by three hours incubation. Then, the media (LPS-containing or LPS-free) in certain experimental groups were replaced with fresh media containing ZEP4 at concentrations ranging from 3.125 to 100 μg/ml, followed by one-hour incubation. Next, palmitic acid (PA, 200 μM) was added to the appropriate wells and the plates were incubated for additional 24 hours, then the amount of TNF alpha in each well was measured. Reduction in TNF alpha production in the treatment groups was calculated relative to cells treated with LPS and PA (CLP200).
Macrophages originating from C57BL/6 mice were cultured at a density of 200,000 cells/mL in a 24-well plate (500 μl wells) and incubated at 37° C. and 5% CO2 overnight. Following incubation, media were replaced with fresh media containing 100 ng/mL LPS, followed by three hours incubation. The LPS-containing media in the treatment groups were then replaced with fresh media containing ZEP4 at 50 μg/ml, followed by one-hour incubation. Then, aliquots of palmitic acid (100, 200 or 400 μM) were added to appropriate wells. The plates were incubated for additional 24 hour and the amount of TNF alpha in each well was measured. Reduction in TNF alpha production in the treatment groups was calculated relative to cells treated with LPS and PA, according to the PA concentration.
Macrophage cells originating from C57BL/6 mice were cultured at a density of 200,000 cells/mL in a 24-well plate (500 μl wells) and incubated at 37° C. and 5% CO2 overnight. Following incubation, media in certain experimental groups were replaced with fresh media containing 100 ng/mL LPS, followed by three hours incubation. Then, the media (LPS-containing or LPS-free) in certain experimental groups were replaced with fresh media containing ZEP3 at a concentration ranging from 3.125 to 100 μg/ml, followed by one-hour incubation. Next, palmitic acid (200 μM) aliquots were added to the appropriate wells and the plates were incubated for additional 24 hours, then the amount of TNF alpha in each well was measured. Reduction in TNF alpha production in the treatment groups was calculated relative to cells treated with LPS and PA.

[3] = tested on: oxazolone-induced atopic dermatitis (AD) mouse models; experiment: Oxazolone-induced atopic dermatitis mouse model, clinical lesions; format: in vivo; conditions: for Scaling: period of reduction: 1% cream topical, 50 mg/kg, scaling score of back skin; for Right ear thickness, significant difference in comparison to control: days 20, 22 and 28; for Erythema scoring: days with a significant difference / total score: days with significant difference: vs control group
Description: The effect of topical administration of ZEP3 (SEQ ID NO: 1), and its sodium salt form (ZEP3Na), and ZEP4 (SEQ ID NO: 2) was evaluated in oxazolone-induced atopic dermatitis (AD) mouse models. This model is widely used and well described in literature (Avci et al. 2013 Expert Opin Drug Discov. 8, 331-355; Petersen T. K. 2006, Basic Clin. Pharmacol. Toxicol. 99, 104-115) as an accepted animal model for evaluating drugs for AD therapy in humans.

TNF alpha [4] = experiment: TNF alpha secretion in LPS treated human keratinocytes (ELISA); format: cell-based; conditions: for TNF alpha levels / production in LPS treated human keratinocytes (in words): compared with cells stimulated with LPS alone; for TNFα: ZEP3Na without DMSO; for Fold Change: refers to TNF-α concentration in sample #2; for % Inhibition: vs corresponding control group without peptide
Description: Methods: SCCE020 cells (EpiGRO™ Human Epidermal Keratinocytes) were grown in complete growth medium (EpiGRO™ Human Keratinocytes Complete Medium; Millipore Cat. #SCMK001) for 4 passages. At passage 5, cells were seeded (3*10^5 cells/well) in triplicates in a volume of 1 ml complete growth medium per well. Additional 3 control wells contained only medium without cells. Upon adherence, cell medium was replaced by basal medium containing L-Glutamine without supplements (starvation medium) and cells were starved overnight. The next day, 24 hours after seeding, the cells were treated with ZEP3 or ZEP3Na or appropriate diluent (PBS or DMSO). After 4 hours of incubation, LPS (from E. Coli 055: B5; Sigma Cat. #L6529-1MG) was added to the wells in final concentration of 20 or 30 μg/ml.
Cells were incubated for 24 hours in tissue culture incubator. After collecting cell supernatants from all wells, cells from treatment groups: 1, 2, 3, 8, 9, 10, 13, 14 (without DMSO groups) were pelleted and stored at −80° C. for further analyses. The cells were collected from as following: upon supernatants collection, the wells were rinsed with trypsin, then incubated with trypsin until they detached from the plate surface, centrifuged, washed with PBS and stored as a cell pellet. TNF-α concentration in the supernatants was measured by ELISA (Quantikine HS ELISA; R&D Systems Cat. #HSTA00D), in 5 replicates.
TNF alpha concentration in the samples was calculated according to the standard curve trend line equation: =0.063x+0.1718. Percent inhibition of TNF alpha production was calculated in each treatment group in comparison to the corresponding control group (same conditions, without peptide).

[5] = peptide 3.125 μg/ml, LPS 100 ng/mL, palmitic acid 200 μM, 24 hours
[6] = peptide 3.125 μg/ml, LPS 100 ng/mL, palmitic acid 200 μM, relative to cells treated with LPS and PA
[7] = peptide 6.25 μg/ml, LPS 100 ng/mL, palmitic acid 200 μM, 24 hours
[8] = peptide 6.25 μg/ml, LPS 100 ng/mL, palmitic acid 200 μM, relative to cells treated with LPS and PA
[9] = peptide 12.5 μg/ml, LPS 100 ng/mL, palmitic acid 200 μM, 24 hours
[10] = peptide 12.5 μg/ml, LPS 100 ng/mL, palmitic acid 200 μM, relative to cells treated with LPS and PA
[11] = peptide 25 μg/ml, LPS 100 ng/mL, palmitic acid 200 μM, 24 hours
[12] = peptide 25 μg/ml, LPS 100 ng/mL, palmitic acid 200 μM, relative to cells treated with LPS and PA
[13] = peptide 50 μg/ml, LPS 100 ng/mL, palmitic acid 200 μM, 24 hours
[14] = peptide 50 μg/ml, LPS 100 ng/mL, palmitic acid 200 μM, relative to cells treated with LPS and PA
[15] = peptide 100 μg/ml, LPS 100 ng/mL, palmitic acid 200 μM, 24 hours
[16] = peptide 100 μg/ml, LPS 100 ng/mL, palmitic acid 200 μM, relative to cells treated with LPS and PA
[17] = peptide control: peptide 100 μg/ml, no LPS, no palmitic acid
[18] = peptide 0.2 mg/ml, LPS 20 μg/ml
[19] = peptide 0.2 mg/ml, LPS 30 μg/ml
[20] = peptide 0.4 mg/ml, LPS 20 μg/ml

Row | Compound | tolerability [1] | Bodyweights in comparison to the excipient [1] | TNF alpha (TNF alpha [2]; [5]) [pg/mL] | % reduction of TNF alpha (TNF alpha [2]; [6]) [%] | TNF alpha (TNF alpha [2]; [7]) [pg/mL] | % reduction of TNF alpha (TNF alpha [2]; [8]) [%] | TNF alpha (TNF alpha [2]; [9]) [pg/mL] | % reduction of TNF alpha (TNF alpha [2]; [10]) [%] | TNF alpha (TNF alpha [2]; [11]) [pg/mL] | % reduction of TNF alpha (TNF alpha [2]; [12]) [%] | TNF alpha (TNF alpha [2]; [13]) [pg/mL] | % reduction of TNF alpha (TNF alpha [2]; [14]) [%] | TNF alpha (TNF alpha [2]; [15]) [pg/mL] | % reduction of TNF alpha (TNF alpha [2]; [16]) [%] | TNF alpha (TNF alpha [2]; [17]) [pg/mL] | Scaling: period of reduction [3] | Right ear thickness, significant difference in comparison to control [3] [%] | Erythema scoring: days with a significant difference [3] | total score: days with significant difference [3] | TNF alpha levels / production in LPS treated human keratinocytes (in words) (TNF alpha [4]) | further results
1 | CCCCCCCC(=O)NCCCC[C@H](NC(=O)[C@H](Cc1c[nH]c2ccccc12)NC(=O)[C@H](CC(N)=O)NC(=O)[C@@H]1CCC(=O)N1)C(=O)O [ZEP3, pGlu-Asn-Trp-Lys(Octanoyl)-OH] ([pGlu]NWK(Octanoyl)-OH) | well tolerated | behaved normally | 41.98 | 82.9 | 75.52 | 69.2 | 74.83 | 69.5 | 61.57 | 74.9 | 106.75 | 56.4 | 176.22 | 28.1 | 10.44 | reduced from days 18 to 24 | −10.1 to −18.0 | days 22 and 24 | days 20, 24 and 28 | effectively diminished; also recorded: dose dependent inhibition | ED50 (reduction of TNF alpha expression) (TNF alpha [2]; macrophage cells treated with LPS 100 ng/mL and palmitic acid 200 μM, estimated): 51.94 µg/mL; Significant difference on back thickness vs. control group 1 ([3]; day 20): −25.5%; Significant difference on back thickness vs. control group 1 ([3]; day 24): −16.6%; TNFα (TNF alpha [4]; peptide 0.02 mg/ml, LPS 20 μg/ml, ZEP3 in 0.025% DMSO): 9.6 pg/mL; Fold Change (TNF alpha [4]; peptide 0.02 mg/ml, LPS 20 μg/ml): 3.4; TNFα (TNF alpha [4]; peptide 0.2 mg/ml, LPS 20 μg/ml, ZEP3 in 0.05% DMSO): 6.0 pg/mL; Fold Change (TNF alpha [4]; [18]): 2.1; % Inhibition (TNF alpha [4]; [18]): 32%; TNFα (TNF alpha [4]; peptide 0.2 mg/ml, LPS 30 μg/ml, ZEP3 in 0.10% DMSO): 17.3 pg/mL; Fold Change (TNF alpha [4]; [19]): 6.1; % Inhibition (TNF alpha [4]; [19]): 20%; TNFα (TNF alpha [4]; peptide 0.4 mg/ml, LPS 20 μg/ml, ZEP3 in 0.10% DMSO): 4.6 pg/mL; Fold Change (TNF alpha [4]; [20]): 1.6; % Inhibition (TNF alpha [4]; [20]): 48%
2 | C[C@@H](O)[C@H](NC(=O)[C@H](Cc1c[nH]c2ccccc12)NC(=O)[C@H](CC(N)=O)NC(=O)[C@@H]1CCC(=O)N1)C(=O)O [ZEP4, pGlu-Asn-Trp-Thr-OH] (HELM PEPTIDE1{[Glp].N.W.T}$$$$V2.0) | well tolerated | behaved normally | 97.79 | 70.6 | 89.83 | 73.0 | 93.12 | 72.0 | 115.58 | 65.2 | 76.23 | 77.0 | 211.68 | 36.3 | 0 | from days 14 to 24 | −12.3 to −16.0 | days 12, 16, 22 and 24 | days 12-20, 24 and 28 | effectively diminished | TNF alpha (TNF alpha [2]; Table 2: ZEP4 50 μg/ml, LPS 100 ng/ml, palmitic acid 100 μM): 133.93 pg/mL; % reduction of TNF alpha (TNF alpha [2]; Table 2: ZEP4 50 μg/ml, LPS 100 ng/ml, palmitic acid 100 μM, relative to LPS and PA 100 μM): 67.8**** %; TNF alpha (TNF alpha [2]; Table 2: ZEP4 50 μg/ml, LPS 100 ng/ml, palmitic acid 200 μM): 167.52 pg/mL; % reduction of TNF alpha (TNF alpha [2]; Table 2: ZEP4 50 μg/ml, LPS 100 ng/ml, palmitic acid 200 μM, relative to LPS and PA 200 μM): 63.7**** %; TNF alpha (TNF alpha [2]; Table 2: ZEP4 50 μg/ml, LPS 100 ng/ml, palmitic acid 400 μM): 252.177 pg/mL; % reduction of TNF alpha (TNF alpha [2]; Table 2: ZEP4 50 μg/ml, LPS 100 ng/ml, palmitic acid 400 μM, relative to LPS and PA 400 μM): 57.5**** %; Significant difference on back thickness vs. control group 1 ([3]; day 14): −13.5%
